{
  "source": "paper PMC11721817",
  "about": "(Toxicology Reports, 2024)",
  "key": {"CT-26 cells [1]": {"system": "CT-26 cells", "assay": "Cell migration", "assay_type": "cell-based, murine", "settings": "24 h, control = 100 %"}, "HCT-116 cells [2]": {"system": "HCT-116 cells", "assay": "Cell migration", "assay_type": "cell-based, human", "settings": "24 h, control = 100 %"}, "[3]": {"system": "HCT-116 (human colorectal cancer cells)", "assay": "MTT cytotoxicity assay, HCT-116", "assay_type": "cell-based"}, "red blood cells (RBCs)": {"system": "red blood cells (RBCs)", "assay": "Hemolysis assay", "assay_type": "cell-based", "settings": "rat blood, 10 μM, 25 μM, 50 μM, and 100 μM, compared to positive control"}, "Wistar rats [4]": {"system": "Wistar rats", "assay": "Histopathological examination of liver, kidney and spleen", "assay_type": "in vivo, rat", "settings": "for Liver sections, histopathology / Spleen sections, histopathology: H&E"}, "Wistar rats [5]": {"system": "Wistar rats", "assay": "Superoxide dismutase activity in organ homogenates", "assay_type": "in vivo, rat"}, "HCT-116 cells [6]": {"system": "HCT-116 cells", "assay": "DNA fragmentation, Hoechst staining, HCT-116", "assay_type": "cell-based, human", "settings": "HCT-116, 50 µM, 24 h"}, "Wistar rats [7]": {"system": "Wistar rats", "assay": "Lipid peroxidation assay", "assay_type": "in vivo, rat", "settings": "1000 mg/kg, compared to control"}, "Wistar rats [8]": {"system": "Wistar rats", "assay": "Serum biochemistry after acute oral administration", "settings": "n = 3; for Globulin: normal range 1.5–2.5, mean ± S.E.M; for A/G ratio: normal range 1.58–2.67, mean ± S.E.M; for Albumin: normal range 3.4–4.8, mean ± S.E.M; for Total protein: normal range 5.2–7.1, mean ± S.E.M; for SGPT (ALT): normal range 18–45, mean ± S.E.M; for ALP: normal range 62–230, mean ± S.E.M; for SGOT (AST): normal range 74–183, mean ± S.E.M"}, "Wistar rats [9]": {"system": "Wistar rats", "assay": "Acute oral toxicity study", "settings": "for change in body weight / food consumed by animals (weight) / change in organ weight, Kidney / change in organ weight, Liver / change in organ weight, Spleen: mean ± S.E.M, n = 5"}, "CT-26 cells [10]": {"system": "CT-26 cells", "assay": "DNA fragmentation, Hoechst staining, CT-26", "assay_type": "cell-based, murine", "settings": "CT-26, 50 µM, 24 h"}, "[11]": {"system": "CT-26 (murine colorectal cancer cells)", "assay": "MTT cytotoxicity assay, CT-26", "assay_type": "cell-based", "settings": "Mus musculus, CT26, 24 h"}},
  "data": [
    {"smiles": "CC(C)(C)CC(C)(C)Nc1c(-c2ccc(-c3ccccc3)cc2)nc2cnccn12", "note": "[IG-01–008, 2-([1,1’-biphenyl]-4-yl)-N-(2,4,4-trimethylpentan-2-yl)imidazo[1,2-a]pyrazin-3-amine]", "values": [
      {"measurement": "migration percentages", "setting": "CT-26 cells [1]; CT-26, 25 μM", "result": 35.65, "unit": "%"},
      {"measurement": "migration percentages", "setting": "CT-26 cells [1]; CT-26, 50 μM", "result": 39.17, "unit": "%"},
      {"measurement": "% migration of cell", "setting": "HCT-116 cells [2]; HCT-116, 25 μM", "result": 36.33, "unit": "%"},
      {"measurement": "% migration of cell", "setting": "HCT-116 cells [2]; HCT-116, 50 μM", "result": 20.76, "unit": "%"},
      {"measurement": "cell viability", "setting": "[3]; HCT-116, 10 μM and 25 μM", "result": "no significant reduction in cell viability"},
      {"measurement": "cytotoxicity", "setting": "[3]; HCT-116, 50 μM and 100 μM", "result": "higher cytotoxicity compared to IG-01–007"},
      {"measurement": "IC50", "setting": "[3]; Homo sapiens, HCT-116, 24 h", "result": "30.9 ± 10.6", "unit": "µM"},
      {"measurement": "hemolytic activity", "setting": "red blood cells (RBCs)", "result": "did not show any hemolytic activity"},
      {"measurement": "Liver sections, histopathology", "setting": "Wistar rats [4]; 300 mg/kg", "result": "mild steatosis and presence of micro and macro vesicles"},
      {"measurement": "Spleen sections, histopathology", "setting": "Wistar rats [4]; 300 mg/kg", "result": "ill-defined spleen section"},
      {"measurement": "Liver sections, histopathology", "setting": "Wistar rats [4]; 1000 mg/kg", "result": "moderate to severe fatty liver change with presence of sinusoidal spaces indicated by arrow and multi necrotic foci filled with mild hemorrhage"},
      {"measurement": "Spleen sections, histopathology", "setting": "Wistar rats [4]; 1000 mg/kg", "result": "disrupt white pulp"},
      {"measurement": "toxicity in liver tissues (abstract)", "setting": "Wistar rats [4]; doses of ≥ 1000 mg/kg", "result": "hepatic damage and cholestasis"},
      {"measurement": "SOD level, spleen", "setting": "Wistar rats [5]; 300 mg/kg, compared with control and 1 % DMSO", "result": "significant decrease seen in SOD level"},
      {"measurement": "SOD level, spleen", "setting": "Wistar rats [5]; 1000 mg/kg, compared with IG-01–007 and IG-01–008 at 300 mg/kg", "result": "significant reduction of SOD level"},
      {"measurement": "SOD levels, kidney", "setting": "Wistar rats [5]; 1000 mg/kg, compared with IG-01–007 at 300 mg/kg", "result": "SOD levels were significantly decreased"},
      {"measurement": "SOD level, spleen", "setting": "Wistar rats [5]; 1000 mg/kg, compared with control and 1 % DMSO", "result": "significant decrease seen in SOD level"},
      {"measurement": "SOD levels, kidney", "setting": "Wistar rats [5]; 1000 mg/kg, in comparison with 1 % DMSO", "result": "SOD levels significantly decreased"},
      {"measurement": "DNA fragmentation", "setting": "HCT-116 cells [6]", "result": "DNA fragmentation"},
      {"measurement": "MDA levels, liver", "setting": "Wistar rats [7]", "result": "significantly higher"},
      {"measurement": "Globulin", "setting": "Wistar rats [8]; 300 mg/kg", "result": "4.30 ± 0.529", "unit": "g/dL"},
      {"measurement": "A/G ratio", "setting": "Wistar rats [8]; 300 mg/kg", "result": "0.736 ± 0.0523"},
      {"measurement": "Albumin", "setting": "Wistar rats [8]; 300 mg/kg", "result": "3.166 ± 0.2905", "unit": "g/dL"},
      {"measurement": "Total protein", "setting": "Wistar rats [8]; 300 mg/kg", "result": "7.266 ± 0.523", "unit": "g/dL"},
      {"measurement": "SGPT (ALT)", "setting": "Wistar rats [8]; 300 mg/kg", "result": "60.33 ± 3.756", "unit": "U/L"},
      {"measurement": "ALP", "setting": "Wistar rats [8]; 300 mg/kg", "result": "391.33 ± 9.261", "unit": "U/L"},
      {"measurement": "SGOT (AST)", "setting": "Wistar rats [8]; 300 mg/kg", "result": "255 ± 5.291", "unit": "U/L"},
      {"measurement": "Globulin", "setting": "Wistar rats [8]; 1000 mg/kg", "result": "4.35 ± 0.144", "unit": "g/dL"},
      {"measurement": "A/G ratio", "setting": "Wistar rats [8]; 1000 mg/kg", "result": "0.923 ± 0.0648"},
      {"measurement": "Albumin", "setting": "Wistar rats [8]; 1000 mg/kg", "result": "3.67 ± 0.2055", "unit": "g/dL"},
      {"measurement": "Total protein", "setting": "Wistar rats [8]; 1000 mg/kg", "result": "7.60 ± 0.3183", "unit": "g/dL"},
      {"measurement": "SGPT (ALT)", "setting": "Wistar rats [8]; 1000 mg/kg", "result": "79.0 ± 1.732", "unit": "U/L"},
      {"measurement": "Triglycerides", "setting": "Wistar rats [8]; 1000 mg/kg, normal range 20–114, mean ± S.E.M", "result": "115.33 ± 5.487", "unit": "mg%"},
      {"measurement": "ALP", "setting": "Wistar rats [8]; 1000 mg/kg", "result": "501.66 ± 13.64", "unit": "U/L"},
      {"measurement": "SGOT (AST)", "setting": "Wistar rats [8]; 1000 mg/kg", "result": "302.33 ± 4.096", "unit": "U/L"},
      {"measurement": "change in body weight", "setting": "Wistar rats [9]; 0 day, 300 mg/kg", "result": "242 ± 5.1478", "unit": "gm"},
      {"measurement": "food consumed by animals (weight)", "setting": "Wistar rats [9]; 0 day, 300 mg/kg", "result": "92.2 ± 0.374", "unit": "gm"},
      {"measurement": "change in body weight", "setting": "Wistar rats [9]; 0 day, 1000 mg/kg", "result": "249 ± 8.124", "unit": "gm"},
      {"measurement": "food consumed by animals (weight)", "setting": "Wistar rats [9]; 0 day, 1000 mg/kg", "result": "92.4 ± 1.166", "unit": "gm"},
      {"measurement": "change in organ weight, Kidney", "setting": "Wistar rats [9]; 300 mg/kg", "result": "2.058 ± 0.123", "unit": "gm"},
      {"measurement": "change in organ weight, Liver", "setting": "Wistar rats [9]; 300 mg/kg", "result": "6.21 ± 0.15", "unit": "gm"},
      {"measurement": "change in organ weight, Spleen", "setting": "Wistar rats [9]; 300 mg/kg", "result": "0.83 ± 0.0763", "unit": "gm"},
      {"measurement": "change in organ weight, Kidney", "setting": "Wistar rats [9]; 1000 mg/kg", "result": "1.954 ± 0.110", "unit": "gm"},
      {"measurement": "change in organ weight, Liver", "setting": "Wistar rats [9]; 1000 mg/kg", "result": "6.74 ± 0.332", "unit": "gm"},
      {"measurement": "change in organ weight, Spleen", "setting": "Wistar rats [9]; 1000 mg/kg", "result": "0.747 ± 0.1135", "unit": "gm"},
      {"measurement": "body weight course", "setting": "Wistar rats [9]; 7th and 14th day, 1000 mg/kg", "result": "gradual decrease in body weight"},
      {"measurement": "food consumption", "setting": "Wistar rats [9]; 7th day, 300 mg/kg and 1000 mg/kg, compared to control", "result": "significant decrease in food consumption"},
      {"measurement": "change in body weight", "setting": "Wistar rats [9]; 7th day, 300 mg/kg", "result": "254 ± 6.595", "unit": "gm"},
      {"measurement": "food consumed by animals (weight)", "setting": "Wistar rats [9]; 7th day, 300 mg/kg", "result": "86.2 ± 0.969", "unit": "gm"},
      {"measurement": "change in body weight", "setting": "Wistar rats [9]; 7th day, 1000 mg/kg", "result": "236 ± 8.124", "unit": "gm"},
      {"measurement": "food consumed by animals (weight)", "setting": "Wistar rats [9]; 7th day, 1000 mg/kg", "result": "83.2 ± 0.86", "unit": "gm"},
      {"measurement": "food intake", "setting": "Wistar rats [9]; 14th day, 300 mg/kg and 1000 mg/kg, compared to 1 % DMSO", "result": "significant reduction in food intake"},
      {"measurement": "food intake", "setting": "Wistar rats [9]; 14th day, 300 mg/kg, compared to control", "result": "significant decrease in food intake"},
      {"measurement": "change in body weight", "setting": "Wistar rats [9]; 14th day, 300 mg/kg", "result": "257 ± 6.04", "unit": "gm"},
      {"measurement": "food consumed by animals (weight)", "setting": "Wistar rats [9]; 14th day, 300 mg/kg", "result": "81.2 ± 0.916", "unit": "gm"},
      {"measurement": "food intake", "setting": "Wistar rats [9]; 14th day, 1000 mg/kg, compared to control", "result": "significant decrease in food intake"},
      {"measurement": "change in body weight", "setting": "Wistar rats [9]; 14th day, 1000 mg/kg", "result": "225 ± 8.366", "unit": "gm"},
      {"measurement": "food consumed by animals (weight)", "setting": "Wistar rats [9]; 14th day, 1000 mg/kg", "result": "76 ± 1.702", "unit": "gm"},
      {"measurement": "body weight", "setting": "Wistar rats [9]; day 14th, 1000 mg/kg, compared to control", "result": "significantly lowered"},
      {"measurement": "toxicity signs", "setting": "Wistar rats [9]; oral, 1000 mg/kg", "result": "toxicity signs were seen"},
      {"measurement": "tremors, change in eye and skin color", "setting": "Wistar rats [9]; oral, 1000 mg/kg", "result": "tremors, change in eye and skin color was observed"},
      {"measurement": "Mortality", "setting": "Wistar rats [9]; oral, 2000 mg/kg", "result": "Mortality was observed"},
      {"measurement": "DNA fragmentation", "setting": "CT-26 cells [10]", "result": "DNA fragmentation"},
      {"measurement": "IC50", "setting": "[11]", "result": "48.1 ± 22.6", "unit": "µM"}
    ]}
  ]
}
